Measurements from patent US20250171436A1, “Tricyclic Fused Heterocyclic PDE3/4 Dual Inhibitor and Use Thereof” (XIZANG HAISCO PHARMACEUTICAL CO., LTD., priority 2022, published 2025).

What was measured:
PDE3A recombinant enzyme = target: T1, PDE3A recombinant enzyme (Homo sapiens, UniProt Q14432); assay: In vitro assay of inhibitory activity against PDE 3A enzyme (FP, FAM-cAMP); format: biochemical; conditions: in vitro screening assay
T1 construct: purchased BPS 79736
Experimental: (§1) • 1. In vitro assay of the inhibitory activity of compounds against PDE 3A and PDE 4B2 enzymes
(§2) • Envision 2104 Multilabel Reader (PerkinElmer) • Black 96-well Plate (Cat #6005540, PerkinElmer) • PDE3A Assay Kit (BPS, Cat. 79736), PDE4B2 Assay Kit (BPS, Cat. 60343) • PDE3A recombinant enzyme • PDE4B2 recombinant enzyme • FAM-Cyclic-3′, 5′-AMP • PDE assay buffer • Binding Agent • Binding Agent Diluent (cAMP)
(§3) • 1) Prepare FAM cAMP working solution: 20 μL of FAM-Cyclic-3′,5′-AMP stock was added to 1980 μL of PDE assay buffer. The mixture was added to all wells at 25 μL/well. • 2) Prepare compound solution: the test compounds were dissolved in DMSO to give a 10 mM stock solution. The compound stock solution was diluted with DMSO to a 100× Top Dose diluent. 5 μL of 100× Top Dose diluent was added to 45 μL of PDE assay buffer to prepare a compound Top Dose working solution. Then, the compound working solution was subjected to double dilution with PDE assay buffer containing 10% DMSO to prepare compound working solutions of various concentrations. The compound working solutions were added to compound wells at 5 μL/well. 5 μL of PDE assay buffer containing 10% DMSO was added to each control well. • 3) Prepare PDE enzyme solution: PDE3A and PDE4B2 enzyme stock solutions were diluted to 150 pg/μL and 50 pg/μL, respectively, with PDE assay buffer, and added to all compound wells and Vehicle control wells at 20 μL/well. 20 μL of PDE assay buffer was added to Blank control wells. • 4) React at room temperature for 1 h. • 5) Prepare Binding Agent: 80 μL of binding agent was added to 7920 μL of binding agent diluent, and the mixture was mixed well and added to all wells at 100 μL/well. • 6) React at room temperature for 1 h. • 7) Read FP on Envision. • 8) Calculation formula for original data:
(§4) % inhibition rate=(FPV−FPS)/(FPV−FPB)×100% • FPS=sample FP • FPV=Vehicle control FP • FPB=Blank control FP.
(§5) Nonlinear regression analysis of log[dose]-inhibition rate was performed by graphpad and IC50 was calculated.

[1] = target: T2, PDE4B2 recombinant enzyme (Homo sapiens, UniProt Q07343); assay: In vitro assay of inhibitory activity against PDE 4B2 enzyme (FP, FAM-cAMP); format: biochemical; conditions: in vitro screening assay
T2 construct: purchased BPS 60343
Experimental: as §1, §2, §3, §4, §5

[2] = reported in WO 2000058308 A1; cited from earlier work
[3] = reported in WO 2000058308 A1; cited from earlier work; remark: listed apart in the source
PDE4 = conditions: biological activity data, background; cited from earlier work

T2 sequence (Q07343 1-564 isoform Q07343-2): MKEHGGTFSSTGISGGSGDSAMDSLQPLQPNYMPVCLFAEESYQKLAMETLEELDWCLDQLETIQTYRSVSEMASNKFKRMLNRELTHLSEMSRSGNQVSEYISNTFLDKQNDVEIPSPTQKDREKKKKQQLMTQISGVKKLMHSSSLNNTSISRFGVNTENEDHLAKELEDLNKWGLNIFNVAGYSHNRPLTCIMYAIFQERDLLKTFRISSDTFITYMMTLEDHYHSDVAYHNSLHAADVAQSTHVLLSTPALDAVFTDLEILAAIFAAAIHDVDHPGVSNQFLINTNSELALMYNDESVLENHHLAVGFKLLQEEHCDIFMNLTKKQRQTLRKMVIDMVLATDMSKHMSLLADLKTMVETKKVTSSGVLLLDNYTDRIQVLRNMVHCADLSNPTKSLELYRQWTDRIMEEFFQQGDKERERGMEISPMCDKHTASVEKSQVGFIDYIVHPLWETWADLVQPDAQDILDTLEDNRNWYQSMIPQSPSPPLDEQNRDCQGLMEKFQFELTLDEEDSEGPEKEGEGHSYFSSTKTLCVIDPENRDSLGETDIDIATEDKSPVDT
T1 sequence (Q14432 whole entry): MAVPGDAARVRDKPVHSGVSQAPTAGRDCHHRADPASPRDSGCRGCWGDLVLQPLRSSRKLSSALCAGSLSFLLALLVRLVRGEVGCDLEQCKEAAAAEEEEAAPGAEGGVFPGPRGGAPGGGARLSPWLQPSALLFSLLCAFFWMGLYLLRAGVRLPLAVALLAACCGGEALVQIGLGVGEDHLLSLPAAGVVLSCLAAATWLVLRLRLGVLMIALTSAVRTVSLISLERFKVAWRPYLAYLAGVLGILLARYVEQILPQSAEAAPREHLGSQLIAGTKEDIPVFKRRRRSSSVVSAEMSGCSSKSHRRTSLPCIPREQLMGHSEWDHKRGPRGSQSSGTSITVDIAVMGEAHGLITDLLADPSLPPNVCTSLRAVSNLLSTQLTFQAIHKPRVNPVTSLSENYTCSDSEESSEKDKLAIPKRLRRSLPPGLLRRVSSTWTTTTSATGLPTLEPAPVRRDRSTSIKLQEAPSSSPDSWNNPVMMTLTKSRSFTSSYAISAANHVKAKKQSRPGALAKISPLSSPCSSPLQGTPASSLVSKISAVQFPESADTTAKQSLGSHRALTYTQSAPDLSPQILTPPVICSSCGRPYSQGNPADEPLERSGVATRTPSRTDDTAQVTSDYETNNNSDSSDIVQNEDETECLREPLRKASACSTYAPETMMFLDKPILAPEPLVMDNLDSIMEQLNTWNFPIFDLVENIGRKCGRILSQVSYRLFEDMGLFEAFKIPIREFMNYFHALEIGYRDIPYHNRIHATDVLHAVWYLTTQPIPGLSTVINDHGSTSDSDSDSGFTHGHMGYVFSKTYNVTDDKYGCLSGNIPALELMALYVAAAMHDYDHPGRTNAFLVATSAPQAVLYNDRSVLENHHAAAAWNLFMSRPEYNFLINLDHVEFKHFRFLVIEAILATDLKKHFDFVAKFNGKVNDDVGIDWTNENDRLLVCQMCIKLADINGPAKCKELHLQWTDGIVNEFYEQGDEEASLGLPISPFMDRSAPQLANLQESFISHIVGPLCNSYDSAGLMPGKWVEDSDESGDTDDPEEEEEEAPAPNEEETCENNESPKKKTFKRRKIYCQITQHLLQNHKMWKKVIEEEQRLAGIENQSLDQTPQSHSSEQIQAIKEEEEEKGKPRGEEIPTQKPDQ

Row | IC50 (PDE3A recombinant enzyme) [nM] | IC50 [1] [nM] | SMILES | solubility [2] | plasma clearance [3] | PDE4 inhibitory activity (PDE4)
1 | 0.5 | 1.52 | CCOc1cc2c(cc1OC)-c1c/c(=N\c3c(C)cc(OC)cc3C)n(CCNC(=O)c3c(O)nnn3C)c(=O)n1CC2 [Compound 9, (E)-N-(2-(9-ethoxy-10-methoxy-2-((4-methoxy-2,6-dimethylphenyl)imino)-4-oxo-6,7-dihydro-2H-pyrimido[6,1-a]isoquinolin-3(4H)-yl)ethyl)-4-hydroxy-1-methyl-1H-1,2,3-triazole-5-carboxamide] |  |  | 
2 | 0.53 | 8.43 | COc1cc2c(cc1OC)-c1c/c(=N\c3c(C)cc(C4CC4)cc3C)n(CCNC(=O)c3c(O)nnn3C)c(=O)n1CC2 [Compound 6, (E)-N-(2-(2-((4-cyclopropyl-2,6-dimethylphenyl)imino)-9,10-dimethoxy-4-oxo-6,7-dihydro-2H-pyrimido[6,1-a]isoquinolin-3(4H)-yl)ethyl)-4-hydroxy-1-methyl-1H-1,2,3-triazole-5-carboxamide] |  |  | 
3 |  |  | COc1cc2c(cc1OC)-c1c/c(=N\c3c(C)cc(C)cc3C)n(CCNC(N)=O)c(=O)n1CC2 [RPL554] | poor | high | unsatisfactory
4 | 0.59 | 1.4 | CCOc1cc2c(cc1OC)-c1c/c(=N\c3c(C)cc(C4CC4)cc3C)n(CCNC(=O)c3c(O)nnn3C)c(=O)n1CC2 [Compound 8, (E)-N-(2-(2-((4-cyclopropyl-2,6-dimethylphenyl)imino)-9-ethoxy-10-methoxy-4-oxo-6,7-dihydro-2H-pyrimido[6,1-a]isoquinolin-3(4H)-yl)ethyl)-4-hydroxy-1-methyl-1H-1,2,3-triazole-5-carboxamide] |  |  | 
